Reference: article PMC11322497 (Frontiers in Pharmacology, 2024)

Tested on: high fat diet (HFD) rabbit model of metabolic-associated steatohepatitis (MASH)
Assay: HFD rabbit study, acute 5-day treatment: liver histomorphology (Giemsa, Masson's trichrome, PSR, SHG)
Format: in vivo, New Zealand White rabbits
Settings: 30 mg/kg p.o. 5 days, week 12; for Ballooning score 0 (no ballooning), share of animals / Ballooning score 1 (few ballooned cells), share of animals / Ballooning score 2 (prominent ballooning), share of animals / Fibrosis (Ishak Score) 0, share of animals / Fibrosis (Ishak Score) 1, share of animals / Fibrosis (Ishak Score) 2, share of animals / Fibrosis (Ishak Score) 3, share of animals / Fibrosis (Ishak Score) 4, share of animals / Fibrosis (Ishak Score) 5, share of animals / Inflammation score 0 (no foci), share of animals / Inflammation score 1 (<2 foci), share of animals / Inflammation score 2 (2–4 foci), share of animals / Inflammation score 3 (> 4 foci), share of animals: n = 3
Procedure: After 1 week of standard diet, animals (n = 12) were randomly assigned to the following groups (Table 1A): • Control rabbits continued to receive a regular diet (RD) for 12 weeks and were treated for 5 days (days 1–5, p.o.), during the last week before culling, with either vehicle; RD+1W Veh group] or GB1211 (30 mg/kg; RD + 1W 30 mg group); • Rabbits received a high fat diet (HFD) for 12 weeks (RD implemented with 0.5% cholesterol and 2.5% vegetable fat) and were treated for 5 days (days 1–5, p.o.), during the last week before culling, with either vehicle (HFD + 1W Veh group) or GB1211 (30 mg/kg; HFD + 1W 30 mg group).
Liver specimens were fixed in 10% buffered formalin (Sigma-Aldrich Corp., St. Louis, MO), paraffin embedded and sectioned at a thickness of 5 μm with a microtome. The slides were stained with hematoxylin and eosin (H&E; both Bio-Optica, Milan, Italy), following standard protocols for histological analysis, to evaluate the general morphology and tissue structure, and then analyzed to evaluate inflammation and […] using Giemsa and Masson’s trichrome staining, respectively. Briefly, deparaffinized and rehydrated sections were incubated with Giemsa (Bio-Optica) in distilled water at ratio 1:1 or with Masson’s trichrome (Bio-Optica), following the manufacturer’s instructions, as previously described ([Vignozzi et al., 2014]). To evaluate lipid accumulation, liver specimens were also cryosectioned at a thickness of 8 μm, fixed with 4% paraformaldehyde, treated for 2–5 min with isopropanol and stained with Oil Red O (Bio-Optica) for 20 min, following the manufacturer’s instructions.
In liver, collagen content evaluation for fibrosis grade and quantification was conducted by staining using Picrosirius Red Stain kit (Bio-Optica), as per manufacturer’s instructions. Briefly, deparaffinized and rehydrated sections were incubated with the staining solution for 50 min, rinsed with the appropriate reagents and with distilled water, dehydrated through ascending alcohols and xylene, and mounted, as previously described ([Comeglio et al., 2017]).
Blinded images of unstained sections of liver were acquired using a Genesis®200 imaging system (HistoIndex, Singapore) and analyzed by Second Harmonic Generation (SHG) microscopy to visualize collagen and Two-Photon Excitation Fluorescence (TPEF) microscopy to visualize the other tissue structures as previously described ([Liu et al., 2017]).
Briefly, deparaffinized tissue sections were imaged by SHG at 780 nm (specific to collagen-1 and -3) simultaneously with TPEF at 780 nm (collected at 550 nm to visualize tissue structure). Both were captured at a ×20 objective and […] resolution. A specialized artificial intelligence analysis program developed by, and proprietary to, HistoIndex were employed to identify and quantify collagen fibres across liver regions with outputs highlighted below and as previously described ([Liu et al., 2017]): • SHG Overall Area (Percentage of total collagen in overall region). • Strings Overall N. (Number of collagen strings in overall region). • Strings Overall Length (Total length of all collagen strings in overall region). • Strings PT Area (Total area of all collagen strings in portal tract region). • Strings PT Length (Total length of all collagen strings in portal tract region). • Strings PS Area (Total area of all collagen strings in peri-sinusoidal region). • Strings PS Length (Total length of all collagen strings in peri-sinusoidal region).
The grading system for inflammation enumerated the number of foci in each 200x field assessed, according to [Kleiner et al. (2005)]: 0 = no foci; 1 = <2 foci; 2 = 2–4 foci; 3 => 4 foci. As shown in the contingency table (Table 3), statistically higher scoring grades were recorded in the HFD+1W Veh group, compared to RD+1W Veh and HFD + 1W 30 mg (both p < 0.05). […]

[1] = HFD rabbits, p < 0.001 vs. HFD + 1W Veh

Compound: OC[C@H]1O[C@H](Sc2cncc(Br)c2)[C@H](O)[C@@H](n2cc(-c3cc(F)c(F)c(F)c3)nn2)[C@H]1O [selvigaltin]
- Ballooning score 0 (no ballooning), share of animals (HFD rabbits): 0.0%
- Ballooning score 1 (few ballooned cells), share of animals (HFD rabbits): 66.7%
- Ballooning score 2 (prominent ballooning), share of animals (HFD rabbits): 33.3%
- Fibrosis (Ishak Score) 0, share of animals (HFD rabbits): 0.0%
- Fibrosis (Ishak Score) 1, share of animals (HFD rabbits): 0.0%
- Fibrosis (Ishak Score) 2, share of animals (HFD rabbits): 33.3%
- Fibrosis (Ishak Score) 3, share of animals (HFD rabbits): 66.7%
- Fibrosis (Ishak Score) 4, share of animals (HFD rabbits): 0.0%
- Fibrosis (Ishak Score) 5, share of animals (HFD rabbits): 0.0%
- Inflammation score 0 (no foci), share of animals (HFD rabbits): 100.0%
- Inflammation score 1 (<2 foci), share of animals (HFD rabbits): 0.0%
- Inflammation score 2 (2–4 foci), share of animals (HFD rabbits): 0.0%
- Inflammation score 3 (> 4 foci), share of animals (HFD rabbits): 0.0%
- Picrosirius Red percentage of fibrosis area [1]: significantly reduced fibrosis to RD levels
- SHG percentage of fibrosis area [1]: normalized
- Ballooning score 0 (no ballooning), share of animals (RD rabbits): 100.0%
- Ballooning score 1 (few ballooned cells), share of animals (RD rabbits): 0.0%
- Ballooning score 2 (prominent ballooning), share of animals (RD rabbits): 0.0%
- Fibrosis (Ishak Score) 0, share of animals (RD rabbits): 0.0%
- Fibrosis (Ishak Score) 1, share of animals (RD rabbits): 0.0%
- Fibrosis (Ishak Score) 2, share of animals (RD rabbits): 33.3%
- Fibrosis (Ishak Score) 3, share of animals (RD rabbits): 66.7%
- Fibrosis (Ishak Score) 4, share of animals (RD rabbits): 0.0%
- Fibrosis (Ishak Score) 5, share of animals (RD rabbits): 0.0%
- Inflammation score 0 (no foci), share of animals (RD rabbits): 66.7%
- Inflammation score 1 (<2 foci), share of animals (RD rabbits): 33.3%
- Inflammation score 2 (2–4 foci), share of animals (RD rabbits): 0.0%
- Inflammation score 3 (> 4 foci), share of animals (RD rabbits): 0.0%
